The results in this text go back to patent US9476099B2 (TRUSTEES OF DARTMOUTH COLLEGE, priority 2012, dated 2016).

Broadly, the IC50 is the point on the concentration scale where inhibition reaches its midpoint. By inhibition is commonly meant the relative decrease from the control value, in per cent.

The test system of test [1] is NT2/D1 cells. Nature of the test: Cell-Titre Glo viable cell growth and survival, 3 day decitabine. The conditions noted are these: 72 h, read-out: IC50, growth inhibition. The test is classed as cell-based. The protocol: (§1) Indicated doses of decitabine were added fresh each day for three days to exponentially growing cultures. Viable cell growth and survival were measured. Data are normalized to no drug treatment. EC cells are NT2/D1, NT2D1/R1, 833K, 833KCP, and Tera-1. Data are the average of 3 experiments in biological duplicate except for MCF-7 cells, which were assayed twice. Error bars are standard deviation (S.D.).
(§2) Cell growth and viability of five EC cell lines (NT2/D1, NT2D1/R1, 833K, 833KCP, and Tera-1) were determined, including two cell lines that are cisplatin-resistant (NT2/D1-R1 and 833KCP). Three control somatic tumor cell lines were also tested (HCT116, MCF7 and U2OS). […] Viable cell growth and survival were measured using Cell-Titre Glo (Promega) assays. […] These higher values are similar to the values shown in FIG. 1 for somatic tumor cell lines (MCF7, U2OS and HCT116).
NT2/D1, NT2D1-R1, 833K, 833K-CP, Tera-1, U20S, and HCT116 cells were cultured in DMEM with 10% FBS supplemented with glutamine and antibiotics except for MCF7 cells that were cultured in F12-DMEM. The derivation of the NT2/D1-resistant NT2/D1-R1 cell line has been previously described (Curtin et al. 2001. Oncogene 20:2559-2569; Kerley-Hamilton et al. 2007. Biochim. Biophys. Acta 1769:209-219). Cells were treated with the indicated dosages of 5-azadeoxycytidine (5-aza-CdR) for 3 days. This drug was replenished each day. Cisplatin (Bristol Laboratories) treatments were performed at the concentrations and time points indicated. To assess cell proliferation and survival, CELL-TITRE GLO (Promega) assays were performed.
Cells were cultured in DMEM media (Gibco) with 10% FBS. Decitabine was added fresh each day. Lentiviral control cells and the stable shRNA DNMT3B knockdown cell line (NT2/D1-R1-sh84) were described previously (Beyrouthy et al. 2009. Cancer Res. 69:9360-9366). DNMT3B knockdown was greater than 90% as confirmed by western blot analysis. Cell proliferation and survival were assessed with the CELL-TITRE GLO assay (Promega). Cell cycle analysis with propidium iodine has been previously described (Kerley-Hamilton et al. 2005. Oncogene 24:6090-6100).

Test [2] deals with 833K cells. Described as above. The test is classed as cell-based. The conditions noted are these: Homo sapiens, 72 h, 3 day treatment, FIG. 1, read-out: IC50, growth inhibition. The protocol:
as §1, §2
(§3) NT2/D1, NT2D1-R1, 833K, 833K-CP, Tera-1, U20S, and HCT116 cells were cultured in DMEM with 10% FBS supplemented with glutamine and antibiotics except for MCF7 cells that were cultured in F12-DMEM. The derivation of the NT2/D1-resistant NT2/D1-R1 cell line has been previously described (Curtin et al. 2001. Oncogene 20:2559-2569; Kerley-Hamilton et al. 2007. Biochim. Biophys. Acta 1769:209-219). Cells were treated with the indicated dosages of 5-azadeoxycytidine (5-aza-CdR) for 3 days. This drug was replenished each day. […]

The subject of test [3] is 833K-CP cells. Described as above. Format: cell-based. The conditions noted are these: 2.5 nM, FIG. 1. The protocol:
as §1, §2, §3

Test [4] relates to U87 glioblastomoa cells. Nature of the test: Decitabine treatment of glioblastoma cells. The test is classed as cell-based. The conditions noted are these: doses as high as 1 μM.
Test [5] relates to NT2/D1 and NT2/D1-R1 cells expressing DNMT3B-targeting shRNAs. Nature of the test: Decitabine dose-response in DNMT3B shRNA knockdown EC cells. Format: cell-based, human. The protocol: Data are the average of biological triplicates and are representative of at least two experiments. Error bars are S.D.
Viable cell growth and survival were measured. Data was normalized to no drug treatment. Error bars (within symbols) are standard deviation. * p=<0.05 compared to untreated controls.
Five distinct lentiviral shRNAs for DNMT3B (sh84, sh85, sh86, sh87, and sh88) were used to knock down DNMT3B expression. Six potential alternatively spliced isoforms of DNMT3B exist; the most biologically relevant isoforms are variants 1, 2, 3 and 6 (Jones, P. A. and S. B. Baylin. 2007. Cell 128:683-692). […] Western blot analysis of NT2/D1 and NT2/D1-R1 cells was also performed with cells treated with DNMT3B shRNA ([…]) and employing DNMT3B antibody, H-230. The results confirmed the reduced expression of DNMT3B when the shRNA were employed. None of the DNMT3B-specific shRNAs affected levels of DNMT1 or DNMT3A (FIG. 2). […] However, knockdown of DNMT3B by itself had no apparent effect on the growth of NT2/D1 or NT2/D1-R1 cells. […] It had been previously reported that cisplatin causes a global p53-dominant transcriptional response in EC cells (Kerley-Hamilton et al. 2005. Oncogene 24:6090-6100). […]
Cells were cultured in DMEM media (Gibco) with 10% FBS. […] Cell proliferation and survival were assessed with the CELL-TITRE GLO assay (Promega). […]

Test [6] concerns LINE-1 elements in NT2/D1 cells. Nature of the test: LINE-1 element bisulfite pyrosequencing (global DNA methylation). Format: cell-based. To be noted: low dose decitabine. From the text: (§4) Genomic DNA was isolated with the QIAMP DNA mini kit (Qiagen) and bisulfite converted with the EZ DNA methylation kit (Zymo Research). DNA was amplified with HOTSTARTAQ plus DNA polymerase (Qiagen). The LINE-1 pyrosequencing assay averages across four CpG sites and has been described previously (Kashiwagi et al. 2011. Nucleic Acids Res. 39:874-888). Pyrosequencing assays for RIN1, SOX15, and TLR4 were designed with PyroMark assay design software (Qiagen) to sequence across corresponding probes cg0599842, cg02515422 and cg13098960 on the HumanMethylation27 BeadChip.

Test [7] relates to RIN1, SOX15 and TLR4 promoter in NT2/D1 cells. Nature of the test: Promoter specific bisulfite pyrosequencing. Format: cell-based. To be noted: 10 nM, 3 days, FIG. 13.
Source text: The graph depicts an average of triplicate sample determinations. Error bars are standard deviation. **=p<0.005. SOX15 values represent the average methylation value across two CpG sites. RIN1 and TRL4 values represent the average methylation across three CpG sites.
(§5) However, methylation changes were less robust in the experiments in NT2/D1 cells. Only 12 genes were identified as having significant decreases in promoter methylation. […] These six genes included RIN1, SOX15, TLR4, GPER, TRIM54, and CD164L2.
as §4

Test [8] concerns RIN1, SOX15 and TLR4 in NT2/D1 cells. Nature of the test: Real-time PCR of gene expression. Format: cell-based. To be noted: 10 nM, 3 days, FIG. 14.
Source text: The graph depicts an average of triplicate sample determinations. Error bars are standard deviation. *=p<0.05; **=p<0.005.
as §5
SYBR green-based real-time PCR (Applied Biosystems) was employed using the ddCT method normalized to GAPDH. For western blot analysis cells were lysed in radioimmune precipitation buffer and separated by SDS-PAGE. Antibodies to actin (sc01615, Santa Cruz), 139-H2AX (Cell Signaling), PARP (c-2-10, Biomol International) and p53 (D0-1, Santa Cruz) were used.

In the case of `Nc1ncn([C@H]2C[C@H](O)[C@@H](CO)O2)c(=O)n1` [decitabine, 5-aza-deoxycytidine], the IC50 in test [1] and in test [2] was 5 to 25 nM in each case. Further, testing at 0.0025 µM in test [3] gave an inhibition of 10%. In addition, the “effect of decitabine treatment on U87 cells” value in test [4] is given as “unaffected”. Besides, the “effect of DNMT3B knockdown on response to low-dose 3 day decitabine treatment compared to sh-control cells” value in test [5] (NT2/D1-R1 shDNMT3B, FIG. 11) was “extensive resistance”. For the same compound, the “decitabine sensitivity of cells expressing DNMT3B-targeting shRNAs compared to control cells” value in test [5] (NT2/D1 sh84, NT2/D1-R1 sh84, sh85, sh86, 3 day treatment, FIG. 3) is “dramatic reduction of decitabine sensitivity”. For the same compound, the “global DNA methylation (LINE-1 bisulfite pyrosequencing)” value in test [6] is “significant reduction in global DNA methylation”. Further, the “promoter methylation of RIN1, SOX15 and TLR4 (bisulfite pyrosequencing)” value in test [7] is on record as “decreased promoter methylation”. The “expression of RIN1, SOX15 and TLR4 (real-time PCR)” value in test [8] is listed as “increased expression”.
